Source: a melting point compilation (Tetko et al.; mined from patent text by program, amines drawn as free bases though some values may be those of a salt)

For CC1(C)N(Cc2ccc(C(=O)Cl)cc2)C(=O)C(=O)N1Cc1ccc(C(=O)Cl)cc1, the melting point was 232 to 235 °C.
NC(=S)N1CCC(=O)C(C(c2ccccc2)c2ccccc2)C1 (configuration not stated) gave a melting point of 107 °C.
With COC(=O)c1cc(NC(=O)OC(C)(C)C)c([N+](=O)[O-])cc1I the melting point was 126 °C.
In the case of CN(C)C=C(C(=O)C(=O)c1ccccc1)c1ccc(C(=O)O)cc1, the melting point is reported as 208 to 209 °C.
For CNc1cc(OC)c(C(=O)NC2CCN(Cc3ccccc3)C2)cc1Cl (configuration not stated), the melting point was 101 to 102 °C.
CC(C)[Si](Oc1ccc2c(c1)CCC2=O)(C(C)C)C(C)C showed a melting point of 63 to 63.5 °C.
In the case of CCCCCCOc1ccccc1C(=O)CCCCC(=O)O, the melting point is reported as 64 to 65 °C.
Work on CCOC(=O)c1c[nH]c2c(C)csc2c1=O yielded a melting point of 238 to 242 °C.
O=C(O)c1cccc(OCc2c(Cl)cccc2Cl)c1 gave a melting point of 187 to 189 °C.
CCOC(=O)C1=CCCCC1S(=O)(=O)Nn1c(Br)ccc1Br (configuration not stated) gave a melting point of 123 to 124 °C.
CCCCCCC(=N)NC(=S)Nc1ccc(Cl)c([N+](=O)[O-])c1 showed a melting point of 92 to 94 °C.
Work on CC(C)(C)OC(=O)C(O)c1ccc2c(c1)OC(c1ccccc1)(c1ccccc1)O2 (configuration not stated) yielded a melting point of 153 to 154 °C.
CC(=O)/C=C/c1ncn2c1CN(C)C(=O)c1c(Cl)cccc1-2 showed a melting point of 235 to 237 °C.
Molecule O=c1cc2c(nn1-c1ccc(Cl)cc1)-c1cc(Cl)ccc1S(=O)CC2 (configuration not stated) has a melting point of 239 to 241 °C.
In the case of COC(=O)c1ccc(C(=O)NC(C)C)cc1S(=O)(=O)NC(C)(C)C, the melting point is reported as 159 to 160 °C.
In the case of COc1cn(-c2ccc(N3CCOCC3)c(F)c2F)nc(-c2ccnn2-c2ccccc2)c1=O, the melting point is reported as 182 to 183 °C.
With CCN(CC)C(=O)NC(C)(CC)N=NC(C)(CC)NC(=O)N(CC)CC (configuration not stated) the melting point was 215 to 220 °C.
Molecule CC1(C(=O)c2c[nH]c3ncc(-c4ccc(N5CCNCC5)cc4)nc23)CCCCC1 has a melting point of 214 to 216 °C.
For O=C(O)CCCN1C(=O)c2cccc([N+](=O)[O-])c2C1=O, the melting point was 144 to 146 °C.
In the case of CC(=O)c1csc(S(N)(=O)=O)c1, the melting point is reported as 170 to 172 °C.
Molecule CN1CCC(c2ccc(N(C)C)cc2)(C(C)(C)O)CC1 has a melting point of 142 to 143 °C.
In the case of CCCCc1nc(CO)c(C(N)=O)n1Cc1ccc(-c2ccccc2C(=O)OC(C)(C)C)cc1, the melting point is reported as 222 to 224 °C.
For COc1cc2c(cc1OC)C(c1ccccc1)N1C(=O)CNC(=O)C1C2 (configuration not stated), the melting point was 265 to 267 °C.
With COc1cccc(C2CCCCN(Cc3ccccc3)C2=O)c1 (configuration not stated) the melting point was 120 to 122 °C.
With N#Cc1nn(-c2c(Cl)cc(C(F)(F)F)cc2Cl)c(N)c1-c1ccoc1S(=O)C(F)(F)F (configuration not stated) the melting point was 141 to 142 °C.
With CCc1nc2c(N)nc3cc(OCCN4CCOCC4)ccc3c2n1CC1CCOCC1 the melting point was 230 to 232 °C.
Nc1cc(-c2ccccn2)c[nH]c1=O gave a melting point of 259 to 262 °C.
With NC(=O)CCN1C(=O)[C@@H](CC(=O)NCCc2ccc(Br)cc2)S[C@H]1c1ccc(C#Cc2ccccc2)s1 (relative stereo) the melting point was 224 to 227 °C.
In the case of O=C1c2ccccc2-n2cnc(-c3nc(C4CC4)no3)c2[C@@H]2CCCN12, the melting point is reported as 211 to 212 °C.
Nc1cccc(Nc2ncc(-c3cccnc3)s2)c1 gave a melting point of 162 °C.
Molecule O=C(O)c1ccc(-c2cnc3c(c2)N(Cc2cc(F)ccc2F)C(=O)CN3)cc1 has a melting point of over 300 °C.
In the case of C(=C\c1cc(/C=C/c2ccc3cc[nH]c3c2)n[nH]1)/c1ccc(Oc2ccccc2)cc1, the melting point is reported as 175 to 182 °C.
Work on O=[N+]([O-])c1cccc(C#Cc2c(F)c(F)nc(F)c2F)c1 yielded a melting point of 130 to 131 °C.
Work on O=C(O)CCCc1cc(C(c2cc(F)ccc2F)S(=O)(=O)c2ccc(Cl)cc2)c(Cl)cn1 (configuration not stated) yielded a melting point of 147 to 148 °C.
CCCCCCCNC(=O)N(C)c1cccc(-c2ccc(C=C(OC)C(=O)OC)cc2)c1 showed a melting point of 93 °C.
With COc1cccc([C@H]2O[C@H](CC(=O)NCCCC(=O)O)C(=O)N(CC(C)(C)CO)c3ccc(Cl)cc32)c1OC the melting point was 111 to 113 °C.
Work on CC1(O)CCC2C3CCC45OC4(C)C(O)=C(C#N)CC5(C)C3CCC21C (configuration not stated) yielded a melting point of 170 to 171 °C.
COc1ccc(C2SCCCS2)cc1OC showed a melting point of 99 to 101 °C.
O=C(c1ccc(Br)cc1)c1ccc(O)cc1F showed a melting point of 62 to 63 °C.
For O=Cc1cc(Cl)c(Cl)c(Cl)n1, the melting point was 84 to 88 °C.
Work on O=C(/C=C/C=C(c1ccc(F)cc1)c1ccc(F)cc1)NCCCCc1cccnc1 yielded a melting point of 155 to 156 °C.
Molecule CCOC(=O)c1cn(CCF)c2cc(F)c(F)cc2c1=O has a melting point of 178 to 180 °C.
Work on O=C1NC(c2ccccc2)CN1CCO (configuration not stated) yielded a melting point of 60 to 63 °C.
With COC(=O)C1=C(C)NC(C)=C(C(=O)O)C1c1cccc([N+](=O)[O-])c1 (configuration not stated) the melting point was 196 to 197 °C.
CCCc1nc(Nc2ccc(F)c(Cl)c2)nc(NC2CCN(S(C)(=O)=O)CC2)n1 gave a melting point of 86 to 87 °C.
For CC(=O)C1CCC2C3CCC4CC(O)C(O[N+](=O)[O-])CC4(C)C3C(=O)CC12C (configuration not stated), the melting point was 170 to 176 °C.
For COC(=O)COc1c2c(cc3c1c1c(C(N)=O)cccc1n3Cc1ccccc1)CCCC2, the melting point was 174 to 177 °C.
CNC(=O)[C@H](C)C[C@H](O)[C@H](CC1CCCCC1)NC(=O)[C@H](Cc1cscn1)NC(=O)[C@@H](CC(=O)N1CCOCC1)Cc1ccccc1 showed a melting point of 130 to 132 °C.
In the case of N#Cc1c2ccccc2cc2c1sc1cccc(-c3cc(Br)c(OCC(=O)O)c(Br)c3)c12, the melting point is reported as 259 to 261 °C.
CCCn1c(CCOC)nc2c(N)nc3cc(OC4CCN(S(C)(=O)=O)CC4)ccc3c21 gave a melting point of 224 to 226 °C.
For COC(=O)c1ccc(OCC2CC(=O)N(c3ccc(OCCn4ccnc4)cc3)C2)cc1 (configuration not stated), the melting point was 135 to 138 °C.
Molecule Cc1nc(C#Cc2ccccc2)sc1C has a melting point of 55 to 60 °C.
Work on CC(C)CCc1c(-c2ccc(S(C)(=O)=O)c(F)c2)cnn(-c2ccc(F)c(F)c2)c1=O yielded a melting point of 119 to 121 °C.
CCOC(Nc1ccccc1)(OCC)C1(Cl)C=CN=C(C(=O)c2ccccc2)C1 (configuration not stated) showed a melting point of 133 to 134 °C.
Cc1cc(-c2cc(C(F)(F)F)nn2-c2ccc(S(C)(=O)=O)cc2)ccc1-c1ccco1 showed a melting point of 174 to 176 °C.
For CC1(C)CC(c2ccc(F)cc2)=C(/C=C/[C@H]2C[C@H](O)CC(=O)O2)C(C)(C)C1 (relative stereo), the melting point was 121 to 122 °C.
Work on CCCCCCN1CCC[C@H](NCc2ccccc2OC)[C@@H]1c1ccccc1 (relative stereo) yielded a melting point of 48 to 50 °C.
Molecule CCOC(=O)c1c(C(F)(F)F)nc(C(F)(F)F)c(C(=O)OCC)c1N has a melting point of 52 to 58 °C.
Work on Fc1ccc(Oc2ncc3c(-c4ccccc4Cl)n[nH]c3n2)c(F)c1 yielded a melting point of 173 to 176 °C.
In the case of CC(C)c1sc(-c2nccs2)c2c1C(=O)CC(C)(C)C2, the melting point is reported as 106 to 108 °C.
In the case of CC(=O)[C@@H]1C(=O)N(C(=O)OC(C)(C)C)[C@@H]1c1ccccc1, the melting point is reported as 63 to 64 °C.
In the case of CN1C2CCCC1CC(NC(=O)c1cccc3oc(-c4ccccc4)nc13)C2 (configuration not stated), the melting point is reported as 182 to 185 °C.
Molecule CCCCOC(=O)Cc1cc2c(s1)CCN(C(=O)[C@H](Cc1ccc(O)cc1)NC(=O)c1ccc(C(=N)N)cc1)C2 has a melting point of 176 to 178 °C.
With CCNC(=O)c1cc(-c2ccc(OC)cc2)nn(CC2CCCC2)c1=O the melting point was 129 °C.
Work on CCCCOC(=O)C(C)NC(=O)c1cc([N+](=O)[O-])cc([N+](=O)[O-])c1 (configuration not stated) yielded a melting point of 93 to 96 °C.
Cc1cc2cc(CN3CCCC3)cnc2cc1NC(=O)c1ccc(-c2ccc(Cl)cc2)c(F)c1 gave a melting point of 181 to 185 °C.
Molecule Cn1ncc(/C=C/C(=O)Nc2ccc(CC(C)(C)C)cc2)c1-c1ccc(F)cc1 has a melting point of 150 to 151 °C.
N=C(NS(=O)(=O)C=Cc1ccc([N+](=O)[O-])cc1)c1ccccc1 showed a melting point of 173 to 175 °C.
In the case of COC(=O)c1cccc2oc(-c3ccccc3O)nc12, the melting point is reported as 134 to 135 °C.
Molecule Cc1cccc(C(=O)c2ccc(F)cc2)n1 has a melting point of 53 to 54 °C.
Work on CCCCC1(CCCC)CCc2c(OCc3ccccc3C#N)cccc2C1O (configuration not stated) yielded a melting point of 112 to 113 °C.
Cc1c(-c2ccncc2)[nH]c2c1C(=O)CCC2 gave a melting point of 248 to 249 °C.
In the case of CCOC(=O)c1ccccc1NC(=O)CNc1ccccc1F, the melting point is reported as 79 to 81 °C.
Work on C[C@@H]1C(=O)C[C@H]2C[C@@H]1OO[C@@]2(C)/C=C/c1cc(C(F)(F)F)nc2c(Cl)cc(Cl)cc12 yielded a melting point of 196 °C.
Work on O=C1Nc2ccccc2Nc2cscc21 yielded a melting point of 233 to 234 °C.
In the case of ClCc1coc(-c2ccc(Br)o2)n1, the melting point is reported as 90 to 92 °C.
With CCN(CC)CCNC(=O)c1cc(Cl)c(N)cc1OCC(C)O (configuration not stated) the melting point was 149 to 150 °C.
For CC(=O)c1cc2c(Br)ccc(OC(C)c3ccccc3)c2o1 (configuration not stated), the melting point was 129 to 132 °C.
Work on CC(=O)Nc1ncc(C(C)=O)cc1C yielded a melting point of 115 to 116 °C.
With CS(=O)(=O)Nc1cc2oc(Br)c(NC=O)c(=O)c2cc1Oc1ccccc1 the melting point was 237 to 238 °C.
Work on CC1Cc2c(N3C(=O)c4ccccc4C3=O)ccc(Cl)c2O1 (configuration not stated) yielded a melting point of 197 to 198 °C.
With CC1(C)CS(=O)(=O)CC(C)(C)[NH+]1[O-] the melting point was 163 °C.
In the case of O=S1(=O)c2cccc3cccc(c23)N1CCCCN1CCN(c2nsc3ccccc23)CC1, the melting point is reported as 123 °C.
COC(=O)CCCC=C(c1cc(C)c2oc(=O)n(C)c2c1)c1cc(C)c2oc(=O)n(C)c2c1 gave a melting point of 164 to 165 °C.
COc1cc(C(=O)O)ccc1Cc1c[nH]c2ccc(NC(=O)CC3CCCC3)cc12 showed a melting point of 218 to 219 °C.
COc1ccc(C=C(Br)Br)cc1O gave a melting point of 94 to 95 °C.
CCOC(=O)c1cc2c(C)c(OCc3ccccc3)ccc2n1C showed a melting point of 100 to 101 °C.
With O=C(O)C1CC1(C(=O)O)c1cccc([N+](=O)[O-])c1 (configuration not stated) the melting point was 167 to 170 °C.
With CC(C)(C)[Si](C)(C)OC1=Cc2ccccc2C1[Si](C)(C)C1C(O[Si](C)(C)C(C)(C)C)=Cc2ccccc21 (configuration not stated) the melting point was 92 to 94 °C.
Work on CC(=O)Oc1cn(C(C)=O)c2ccccc12 yielded a melting point of 79.6 to 80.5 °C.
In the case of NS(=O)(=O)c1cccnc1OCC1CC1, the melting point is reported as 121 to 122 °C.
C=CC(C)n1ncc(-c2ccc(S(C)(=O)=O)cc2)c(-c2ccc(F)cc2)c1=O (configuration not stated) showed a melting point of 140 to 142 °C.
In the case of C=CC(=O)N1CCSc2ccc(OC)cc2C1, the melting point is reported as 79 to 81 °C.
Molecule Cc1oc(-c2ccccc2)nc1COc1ccc(COc2nn(-c3ccccc3)cc2CC(=O)O)cn1 has a melting point of 164 to 165 °C.
Work on CNc1nc(-c2cccc(-c3ccc(SC)cc3)c2)c2cc(OC)c(OC)cc2n1 yielded a melting point of 140 to 142 °C.
COc1cccc(-n2c(=O)n(O)c(=O)c3cc(F)c(N4CCN(C)CC4)cc32)c1 showed a melting point of 158 to 160 °C.
In the case of CCCc1nn(C)c(C(N)=O)c1NC(=O)c1cc(S(=O)(=O)N2CCN(C)CC2)ccc1OCC, the melting point is reported as 204 to 206 °C.
